The source of these data is PubChem BioAssay AID248 (DTP/NCI, 2004).

The test has as its system L1210 leukemia ip in BDF1 mice, survival T/C. The test can be described thus: NCI In Vivo Anticancer Drug Screen. Data for tumor model L1210 Leukemia (intraperitoneal) in B6D2F1 (BDF1) mice. The settings on record: higher = longer survival. In short, it runs like this:
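Read-out is survival time, reported as the treated-group measurement over the vehicle-control measurement.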

Where [1] appears, read: endpoint: mean survival time, dose: 100.0 mg/kg/injection, schedule: Q01DX009 (ip), vehicle: saline with Tween-80.
Where [2] appears, read: endpoint: mean survival time, dose: 100.0 mg/kg/injection, schedule: Q04DX002 (ip), vehicle: saline with Tween-80.
[3] abbreviates: endpoint: mean survival time, dose: 200.0 mg/kg/injection, schedule: Q04DX002 (ip), vehicle: saline with Tween-80.
The mark [4] stands for this setting: endpoint: mean survival time, dose: 400.0 mg/kg/injection, schedule: Q04DX002 (ip), vehicle: saline with Tween-80.
The mark [5] stands for this setting: endpoint: mean survival time, dose: 100.0 mg/kg/injection, schedule: Q01DX001 (ip), vehicle: saline.
[6] abbreviates: endpoint: mean survival time, dose: 200.0 mg/kg/injection, schedule: Q01DX001 (ip), vehicle: saline.
Where [7] appears, read: endpoint: mean survival time, dose: 100.0 mg/kg/injection, schedule: Q04DX003 (ip), vehicle: Klucel (hydroxypropylcellulose) (HPC).
The mark [8] stands for this setting: endpoint: mean survival time, dose: 200.0 mg/kg/injection, schedule: Q04DX003 (ip), vehicle: Klucel (hydroxypropylcellulose) (HPC).
Setting [9] is: endpoint: mean survival time, dose: 50.0 mg/kg/injection, schedule: Q01DX009 (ip), vehicle: saline with Tween-80.
The mark [10] stands for this setting: endpoint: mean survival time, dose: 200.0 mg/kg/injection, schedule: Q01DX009 (ip), vehicle: saline with Tween-80.
The mark [11] stands for this setting: endpoint: mean survival time, dose: 400.0 mg/kg/injection, schedule: Q01DX001 (ip), vehicle: saline.
Where [12] appears, read: endpoint: mean survival time, dose: 100.0 mg/kg/injection, schedule: Q01DX009 (ip), vehicle: Klucel (hydroxypropylcellulose) (HPC).
Setting [13] is: endpoint: mean survival time, dose: 100.0 mg/kg/injection, schedule: Q01DX001 (ip), vehicle: carboxymethylcellulose (CMC).
Setting [14] is: endpoint: mean survival time, dose: 200.0 mg/kg/injection, schedule: Q01DX001 (ip), vehicle: carboxymethylcellulose (CMC).
Setting [15] is: endpoint: mean survival time, dose: 400.0 mg/kg/injection, schedule: Q01DX001 (ip), vehicle: carboxymethylcellulose (CMC).
The mark [16] stands for this setting: endpoint: mean survival time, dose: 400.0 mg/kg/injection, schedule: Q04DX003 (ip), vehicle: Klucel (hydroxypropylcellulose) (HPC).
Setting [17] is: endpoint: mean survival time, dose: 100.0 mg/kg/injection, schedule: Q04DX003 (ip), vehicle: saline with Tween-80.
The mark [18] stands for this setting: endpoint: mean survival time, dose: 200.0 mg/kg/injection, schedule: Q04DX003 (ip), vehicle: saline with Tween-80.
The mark [19] stands for this setting: endpoint: mean survival time, dose: 400.0 mg/kg/injection, schedule: Q04DX003 (ip), vehicle: saline with Tween-80.
[20] abbreviates: endpoint: mean survival time, dose: 400.0 mg/kg/injection, schedule: Q01DX009 (ip), vehicle: saline with Tween-80.

“And” between values parts separate entries of the source, which are not always exact repeats. Equal values may be shown once. Toxic doses and inconclusive results are not listed.

With `COC1C(O)C(C)OC(OC2C(Oc3cccc4c(O)c5c(=O)oc6ccc(C)c7c(=O)oc(c34)c5c67)OC(C)C(O)C2O)C1O` (stereo not drawn), the T/C (endpoint: mean survival time, dose: 1.25 mg/kg/injection, schedule: Q01DX009 (ip), vehicle: saline with Tween-80) was 97 % of control; the T/C (endpoint: mean survival time, dose: 2.5 mg/kg/injection, schedule: Q01DX009 (ip), vehicle: saline with Tween-80) is 123 % of control; the T/C (endpoint: mean survival time, dose: 5.0 mg/kg/injection, schedule: Q01DX009 (ip), vehicle: saline with Tween-80) was 115 % of control; the T/C (endpoint: mean survival time, dose: 12.5 mg/kg/injection, schedule: Q01DX009 (ip), vehicle: carboxymethylcellulose (CMC)) is 108 % of control; the T/C (endpoint: mean survival time, dose: 20.0 mg/kg/injection, schedule: Q01DX009 (ip), vehicle: saline with Tween-80) is 166 % of control; the T/C (endpoint: mean survival time, dose: 25.0 mg/kg/injection, schedule: Q01DX009 (ip), vehicle: carboxymethylcellulose (CMC)) is 108 % of control. The T/C (endpoint: mean survival time, dose: 50.0 mg/kg/injection, schedule: Q01DX009 (ip), vehicle: carboxymethylcellulose (CMC)) was 117 % of control; the T/C under setting [1] is 121 % of control; the T/C (endpoint: median survival time, dose: 8.0 mg/kg/injection, schedule: Q04DX003 (ip), vehicle: saline with Tween-80) is 106 % of control; the T/C (endpoint: median survival time, dose: 16.0 mg/kg/injection, schedule: Q04DX003 (ip), vehicle: saline with Tween-80) was 110 % of control; the T/C (endpoint: median survival time, dose: 32.0 mg/kg/injection, schedule: Q04DX003 (ip), vehicle: saline with Tween-80) was 114 % of control; the T/C (endpoint: median survival time, dose: 64.0 mg/kg/injection, schedule: Q04DX003 (ip), vehicle: saline with Tween-80) was 114 % of control. For the same compound, the T/C (endpoint: median survival time, dose: 128.0 mg/kg/injection, schedule: Q04DX003 (ip), vehicle: saline with Tween-80) was 110 % of control.
On to `Cc1ccc2c(c1)C1(C)C=CC(=O)CC1O2` (stereo not drawn), for which the T/C by setting is: under setting [2], 106 % of control; under setting [3], 110 % of control; under setting [4], 106 % of control.
As to `O=C(CF)NC1C(O)OC(CO)C(O)C1O` (stereo not drawn), the T/C is, setting by setting: under setting [5], 107 % of control; under setting [6], 112 % of control.
`CCC1CCC(Cc2ccncc2)CC1` (stereo not drawn): the T/C by setting is: under setting [7], 98 % of control; under setting [8], 92 % of control.
`COc1ccc(/C=N/NC(=O)CNC(=O)c2ccc(Cl)c(Cl)c2)cc1OC`: the T/C by setting is: under setting [9], 91 % of control; under setting [1], 91 % of control; under setting [10], 102 % of control.
Regarding `Cc1ccc2c(ccc3c[n+]4ccccc4c(C)c32)c1`, the T/C was 107 % of control (endpoint: mean survival time, dose: 12.5 mg/kg/injection, schedule: Q01DX001 (ip), vehicle: carboxymethylcellulose (CMC)) and 96 % of control (endpoint: mean survival time, dose: 25.0 mg/kg/injection, schedule: Q01DX001 (ip), vehicle: carboxymethylcellulose (CMC)).
With `COc1ccc(OC)c(C(=O)CSC(=S)OC(C)C)c1`, the T/C reads like this: (endpoint: mean survival time, dose: 100.0 mg/kg/injection, schedule: Q04DX002 (ip), vehicle: Klucel (hydroxypropylcellulose) (HPC)) 96 % of control; (endpoint: mean survival time, dose: 200.0 mg/kg/injection, schedule: Q04DX002 (ip), vehicle: Klucel (hydroxypropylcellulose) (HPC)) 92 % of control; (endpoint: mean survival time, dose: 400.0 mg/kg/injection, schedule: Q04DX002 (ip), vehicle: Klucel (hydroxypropylcellulose) (HPC)) 96 % of control.
On to `COC(=O)C1=C(NC(=O)Nc2ccccc2)OC(C)(C)C1c1ccc(Cl)cc1` (stereo not drawn), for which the T/C reads like this: under setting [5], 93 % of control; under setting [6], 89 % of control; under setting [11], 89 % of control.
With `O=C(COCC(=O)N/N=C/c1ccccc1Cl)N/N=C\c1ccccc1Cl`, the T/C under setting [12] was 93 % of control and the T/C (endpoint: mean survival time, dose: 200.0 mg/kg/injection, schedule: Q01DX009 (ip), vehicle: Klucel (hydroxypropylcellulose) (HPC)) is 95 % of control.
Turning to `COc1ccc(C2C(=O)NN=C2C)cc1` (stereo not drawn), the T/C runs as follows: under setting [13], 96 % of control; under setting [14], 96 % of control; under setting [15], 102 % of control.
For `O=[N+]([O-])c1cc(C(F)(F)F)ccc1Oc1ccc(Cl)cc1`, the T/C is 96 % of control under setting [7], 103 % of control under setting [8] and 96 % of control under setting [16].
For `NNc1n[nH]c(=O)[nH]c1=O`, the T/C was 102 % of control under setting [5], 96 % of control under setting [6] and 96 % of control under setting [11].
For the compound `COC1OC(COS(=O)(=O)c2ccc(C)cc2)C(OS(=O)(=O)c2ccc(C)cc2)C(OS(=O)(=O)c2ccc(C)cc2)C1OS(=O)(=O)c1ccc(C)cc1` (stereo not drawn), the T/C runs as follows: under setting [17], 91 % of control; under setting [18], 91 % of control; under setting [19], 90 % of control.
For the compound `Cc1cc2c(=S)nc(N)[nH]c2nc1C`, the T/C is, setting by setting: (endpoint: mean survival time, dose: 100.0 mg/kg/injection, schedule: Q01DX Z (ip), vehicle: methylcellulose (MC)) 105 % of control; (endpoint: mean survival time, dose: 200.0 mg/kg/injection, schedule: Q01DX Z (ip), vehicle: methylcellulose (MC)) 103 % of control.
In the case of `COc1cc(OC)cc(C(O)C(C)NC(C)C)c1` (stereo not drawn), the T/C is 95 % of control (endpoint: mean survival time, dose: 6.25 mg/kg/injection, schedule: Q01DX009 (ip), vehicle: Klucel (hydroxypropylcellulose) (HPC)); 92 % of control (endpoint: mean survival time, dose: 12.5 mg/kg/injection, schedule: Q01DX009 (ip), vehicle: Klucel (hydroxypropylcellulose) (HPC)); 108 % of control (endpoint: mean survival time, dose: 12.5 mg/kg/injection, schedule: Q04DX003 (ip), vehicle: saline); 92 % of control (endpoint: mean survival time, dose: 25.0 mg/kg/injection, schedule: Q01DX009 (ip), vehicle: Klucel (hydroxypropylcellulose) (HPC)); 97 % of control (endpoint: mean survival time, dose: 25.0 mg/kg/injection, schedule: Q04DX003 (ip), vehicle: saline); 95 % of control (endpoint: mean survival time, dose: 50.0 mg/kg/injection, schedule: Q01DX009 (ip), vehicle: Klucel (hydroxypropylcellulose) (HPC)). For the same compound, the T/C reads like this: (endpoint: mean survival time, dose: 50.0 mg/kg/injection, schedule: Q04DX003 (ip), vehicle: saline) 105 % of control; under setting [12], 101 % of control; (endpoint: mean survival time, dose: 100.0 mg/kg/injection, schedule: Q04DX003 (ip), vehicle: saline) 103 % of control.
In the case of `Cc1ccc(Cl)c([N+](=O)[O-])c1N`, the T/C reads like this: under setting [1], 92 % of control; under setting [17], 106 % of control; under setting [10], 95 % of control; under setting [18], 104 % of control; under setting [20], 108 % of control; under setting [19], 104 % of control.
As for `CCCCCC(O)(CCCC)CCCC`, the T/C was 104 % of control under setting [13], 107 % of control under setting [14] and 102 % of control under setting [15].
As to `O=C(CCCC(=O)N/N=C/c1cccc(Br)c1)N/N=C\c1cccc(Br)c1`, the T/C runs as follows: (endpoint: mean survival time, dose: 50.0 mg/kg/injection, schedule: Q01DX001 (ip), vehicle: carboxymethylcellulose (CMC)) 90 % of control; under setting [13], 88 % of control.
Take `CSc1ccc(NC(=O)NS(=O)(=O)c2ccc(C)cc2)cc1`: the T/C under setting [1] was 88 % of control and 91 % of control; the T/C under setting [2] is 96 % of control; the T/C under setting [17] is 95 % of control; the T/C under setting [10] is 97 % of control and 91 % of control; the T/C under setting [3] is 89 % of control; the T/C under setting [18] is 89 % of control. The T/C runs as follows: under setting [20], 87 % of control; under setting [4], 100 % of control and 86 % of control; under setting [19], 90 % of control.
In the case of `ClCC[n+]1ccccc1`, the T/C was 104 % of control (endpoint: mean survival time, dose: 75.0 mg/kg/injection, schedule: Q01DX001 (ip), vehicle: saline) and 101 % of control (endpoint: mean survival time, dose: 150.0 mg/kg/injection, schedule: Q01DX001 (ip), vehicle: saline).
Turning to `O=S(=O)(/C=C\c1ccccc1)N(c1ccccc1)c1ccccc1`, the T/C is 102 % of control under setting [7], 110 % of control under setting [8] and 96 % of control under setting [16].
Regarding `O=S(=O)(OC1CCCCC1Br)c1ccc(Br)cc1` (stereo not drawn), the T/C reads like this: under setting [9], 98 % of control; under setting [1], 95 % of control.
